Test systems include IGROV1 ovarian; MDA-N; SNB-19 CNS; UACC-257 melanoma; M14 melanoma; SK-MEL-5 melanoma; U251 CNS; NCI-H460 lung; SF-295 CNS; SR leukemia; KM12 colon; NCI-H23 lung; HL-60(TB) leukemia; BT-549 breast; SF-268 CNS; A498 renal; HT29 colon; HOP-62 NSCLC; HCT-116 colon; NCI-H226 lung.
Holding throughout (test): inhibition of tumour cell growth, NCI panel, 48 h

Results on 12 molecules are retold here after PubChem BioAssay (NCI).

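Grown in 96-well plates, cells were treated for 48 hours with each compound at five concentrations. Insufficient inhibition: endpoint recorded as highest concentration tested. Definition used: TGI = concentration required for complete inhibition of growth.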

Take `Cc1c2cnccc2nc2[nH]c3ccncc3c12`: the TGI in the assay with IGROV1 ovarian is 20.4 µM; in the assay with MDA-N it was 43.2 µM; with SNB-19 CNS, above 100 µM; with UACC-257 melanoma it was 94.9 µM; in the assay with M14 melanoma it was 20.6 µM; in the assay with SK-MEL-5 melanoma it was 20.6 µM. Moreover, the TGI in the assay with U251 CNS is above 100 µM; in the assay on NCI-H460 lung, 6.06 µM; with SF-295 CNS, 52.5 µM; with SR leukemia, 11.5 µM; in the assay on KM12 colon, 41.8 µM; with NCI-H23 lung, 6.9 µM. Besides, the TGI with HL-60(TB) leukemia was 61.9 µM; in the assay on BT-549 breast it was 63.8 µM; in the assay with SF-268 CNS, 7.62 µM; in the assay with A498 renal, 47.5 µM; in the assay on HT29 colon it was above 100 µM; with HOP-62 NSCLC, 18.4 µM.
Turning to `C1=NCCOCCN=Cc2ccccc2OCc2cccc(n2)COc2ccccc21`, the TGI with IGROV1 ovarian was above 25 µM; in the assay on MDA-N it was 6.96 µM; with HCT-116 colon, above 25 µM; in the assay with SNB-19 CNS it was above 25 µM; in the assay with UACC-257 melanoma it was 21.5 µM; with M14 melanoma, above 25 µM. Moreover, the TGI in the assay on U251 CNS is 18.2 µM; in the assay with NCI-H460 lung, above 25 µM; with SF-295 CNS, 12 µM; with SR leukemia, 9.91 µM; with KM12 colon, above 25 µM; with NCI-H23 lung, above 25 µM. Besides, the TGI with HL-60(TB) leukemia is 16.3 µM; with BT-549 breast, 19.1 µM; with SF-268 CNS it was above 25 µM; in the assay with A498 renal, above 25 µM; in the assay on HT29 colon it was 10.9 µM; with HOP-62 NSCLC, above 25 µM.
As to `Cc1cc(NS(=O)(=O)c2ccc(Nc3c4ccccc4nc4ccc(C(=O)Nc5ccc(S(=O)(=O)N=C(N)N)cc5)cc34)cc2)no1`, the TGI in the assay with IGROV1 ovarian, in the assay with MDA-N, in the assay on HCT-116 colon, in the assay on SNB-19 CNS, with UACC-257 melanoma and in the assay on M14 melanoma was above 100 µM each time. Also, the TGI with SK-MEL-5 melanoma, in the assay on U251 CNS, with NCI-H460 lung, in the assay on SF-295 CNS, in the assay on SR leukemia and in the assay on KM12 colon was above 100 µM throughout. The TGI in the assay on NCI-H23 lung, with HL-60(TB) leukemia, with NCI-H226 lung, with BT-549 breast, with SF-268 CNS and in the assay with HT29 colon was above 100 µM each time. In the assay with HOP-62 NSCLC, the TGI was above 100 µM.
As to `CCOC(=O)C(NC(=O)NC(C(=O)OCC)C(=O)OCC)C(=O)OCC`, the TGI in the assay with IGROV1 ovarian, with MDA-N, in the assay with HCT-116 colon, with SNB-19 CNS, with M14 melanoma and with SK-MEL-5 melanoma was above 100 µM each time. Also, the TGI with U251 CNS, in the assay with NCI-H460 lung, in the assay with SF-295 CNS, in the assay on SR leukemia, in the assay with NCI-H23 lung and in the assay with NCI-H226 lung was above 100 µM throughout. Besides, the TGI with BT-549 breast, with SF-268 CNS, with HT29 colon and in the assay with HOP-62 NSCLC was above 100 µM in each case.
On to `COC1OC(COC(=O)NCCCCC(=O)C(F)(F)F)C(O)C(O)C1O` (stereo not drawn), for which the TGI with IGROV1 ovarian, with MDA-N, in the assay with HCT-116 colon, in the assay with SNB-19 CNS, in the assay with UACC-257 melanoma and with M14 melanoma was above 100 µM each time. Further, the TGI in the assay on SK-MEL-5 melanoma, in the assay with U251 CNS, in the assay on NCI-H460 lung, in the assay with SF-295 CNS, in the assay on SR leukemia and with KM12 colon was above 100 µM each time. Moreover, the TGI in the assay with NCI-H23 lung, in the assay on HL-60(TB) leukemia, in the assay on BT-549 breast, in the assay on SF-268 CNS, with HT29 colon and with HOP-62 NSCLC was above 100 µM each time.
On to `c1ccc2c(c1)CCN2CCc1c[nH]c2ccccc12`, for which the TGI with IGROV1 ovarian, in the assay on MDA-N, in the assay on HCT-116 colon, in the assay with SNB-19 CNS, with UACC-257 melanoma and in the assay with M14 melanoma was above 10 µM each time. In addition, the TGI in the assay with SK-MEL-5 melanoma, in the assay on U251 CNS, in the assay with NCI-H460 lung, in the assay on SF-295 CNS, with SR leukemia and in the assay on KM12 colon was above 10 µM in each case. Also, the TGI with NCI-H23 lung, in the assay with HL-60(TB) leukemia, in the assay with NCI-H226 lung, in the assay with BT-549 breast, with SF-268 CNS and in the assay on HT29 colon was above 10 µM each time. Moreover, the TGI in the assay with HOP-62 NSCLC was above 10 µM.
For the molecule `NC1CNC(=O)c2cscc21` (stereo not drawn), the TGI with IGROV1 ovarian, in the assay on MDA-N, in the assay with HCT-116 colon, in the assay on SNB-19 CNS, with UACC-257 melanoma and in the assay with M14 melanoma was above 100 µM throughout. Also, the TGI in the assay with SK-MEL-5 melanoma, in the assay on U251 CNS, in the assay with NCI-H460 lung, with SF-295 CNS, in the assay on SR leukemia and in the assay on KM12 colon was above 100 µM in each case. Also, the TGI in the assay on NCI-H23 lung, in the assay with HL-60(TB) leukemia, in the assay on BT-549 breast, with SF-268 CNS, in the assay with A498 renal and in the assay with HT29 colon was above 100 µM in each case.
On to `O=C1C(N=Nc2ccc(-c3nc4ccccc4o3)cc2)NC(=S)N1c1ccccc1` (stereo not drawn), for which the TGI in the assay on IGROV1 ovarian, with MDA-N, in the assay on HCT-116 colon, with SNB-19 CNS, in the assay with UACC-257 melanoma and in the assay with M14 melanoma was above 100 µM in each case. The TGI in the assay with SK-MEL-5 melanoma is above 100 µM; in the assay on U251 CNS, above 100 µM; with NCI-H460 lung, above 100 µM; in the assay on SF-295 CNS, above 100 µM; in the assay on SR leukemia, 85.6 µM; with KM12 colon, above 100 µM. Moreover, the TGI in the assay on NCI-H23 lung is above 100 µM; with HL-60(TB) leukemia it was 0.742 µM; in the assay with NCI-H226 lung, above 100 µM; with BT-549 breast it was above 100 µM; in the assay with SF-268 CNS, above 100 µM; in the assay with HT29 colon it was above 100 µM. Moreover, the TGI with HOP-62 NSCLC is above 100 µM.
Turning to `COC(=O)c1cc(-c2c[nH]cc2C(=O)OCc2ccccc2)cn1S(=O)(=O)c1ccc(C)cc1`, the TGI in the assay on IGROV1 ovarian, in the assay with MDA-N, in the assay on HCT-116 colon, in the assay on SNB-19 CNS, with UACC-257 melanoma and in the assay on M14 melanoma was above 100 µM in each case. In addition, the TGI with SK-MEL-5 melanoma, in the assay with NCI-H460 lung, in the assay with SF-295 CNS, with SR leukemia, in the assay on KM12 colon and in the assay with NCI-H23 lung was above 100 µM throughout. The TGI in the assay on BT-549 breast, in the assay on SF-268 CNS, in the assay on A498 renal, in the assay with HT29 colon and with HOP-62 NSCLC was above 100 µM in each case.
With `CN(/N=C/c1cccs1)c1ccc([N+](=O)[O-])cc1[N+](=O)[O-]`, the TGI in the assay on IGROV1 ovarian, in the assay with MDA-N, in the assay with HCT-116 colon, in the assay on SNB-19 CNS, in the assay with UACC-257 melanoma and in the assay on M14 melanoma was above 100 µM throughout. Also, the TGI with SK-MEL-5 melanoma, with U251 CNS, in the assay with NCI-H460 lung, with SF-295 CNS, in the assay with SR leukemia and in the assay with KM12 colon was above 100 µM each time. For the same molecule, the TGI in the assay on NCI-H23 lung, in the assay on HL-60(TB) leukemia, with BT-549 breast, in the assay on SF-268 CNS, in the assay on HT29 colon and with HOP-62 NSCLC was above 100 µM each time.
For `O=C1C=CC(=O)c2c(O)c(N[C@@H](Cc3ccccc3)C(=O)OCc3ccccc3)c(Cl)c(O)c21`, the TGI in the assay on IGROV1 ovarian is above 10 µM; in the assay with MDA-N, above 10 µM; in the assay on HCT-116 colon, 4.42 µM; in the assay on SNB-19 CNS, above 10 µM; in the assay with UACC-257 melanoma, above 10 µM; in the assay with M14 melanoma it was above 10 µM. In addition, the TGI with SK-MEL-5 melanoma was 8.18 µM; in the assay with U251 CNS, above 10 µM; in the assay with NCI-H460 lung it was above 10 µM; with SF-295 CNS, above 10 µM; in the assay on KM12 colon, above 10 µM; in the assay with NCI-H23 lung it was above 10 µM. The TGI in the assay on HL-60(TB) leukemia, in the assay with NCI-H226 lung, in the assay on BT-549 breast, with SF-268 CNS, in the assay with A498 renal and in the assay with HT29 colon was above 10 µM throughout. In the assay on HOP-62 NSCLC, the TGI was above 10 µM.
As for `O=C(O)C/C(=C\c1ccccc1)C(=O)O`, the TGI with IGROV1 ovarian, with MDA-N, in the assay with HCT-116 colon, in the assay with SNB-19 CNS, with UACC-257 melanoma and in the assay on M14 melanoma was above 100 µM throughout. Also, the TGI in the assay with SK-MEL-5 melanoma, in the assay with U251 CNS, with NCI-H460 lung, in the assay on SF-295 CNS, with KM12 colon and in the assay with NCI-H23 lung was above 100 µM in each case. Moreover, the TGI with HL-60(TB) leukemia, in the assay with NCI-H226 lung, in the assay with BT-549 breast, in the assay on SF-268 CNS, in the assay on A498 renal and in the assay on HT29 colon was above 100 µM in each case. This molecule gave a TGI in the assay with HOP-62 NSCLC above 100 µM.
